Legend:
[1] = system: plasma ANF concentration; assay: effect on rat plasma ANF concentration; assay type: in vivo, Male Sprague-Dawley rats; conditions: about 10 mg/kg p.o., in 10% ethanol/polyethylene glycol 400; ANF infused 450 ng/kg/min i.v.
Experimental: The effect of the compounds of the invention on rat plasma ANF concentration can be determined as follows:
Male Sprague-Dawley rats (275-390 g) are anesthetized with ketamine (150 mg/kg)/acepromazine (10%) and instrumented with catheters in the femoral artery and vein to obtain blood samples and infuse ANF, respectively. The rats are tethered with a swivel system and are allowed to recover for 24 hours before being studied in the conscious, unrestrained state.
In this assay, plasma ANF levels are determined in the presence and absence of NEP inhibition. On the day of study, all rats are infused continuously with ANF at 450 ng/kg/min. i.v. for the entire 5 hours of the experiment. Sixty minutes after beginning the infusion, blood samples for baseline ANF measurements are obtained (time 0) and the rats are then randomly divided into groups treated with the test compound or vehicle. Additional blood samples are taken 30, 60, 120, 180 and 240 minutes after administration of the test compound.
Plasma concentrations are determined by a specific radioimmunoassay. […] The supenatant is decanted and the pellets counted in a gamma counter. […] Plasma ANF levels are expressed as a percent of those measured in vehicle-treated animals which received ANF alone (450 ng/kg/min i.v.).

[2] = system: DOCA-salt hypertensive rats; assay: antihypertensive effect in DOCA-salt hypertensive rats; assay type: in vivo, rat; conditions: 10 mg/Kg p.o., in PEG 400
Experimental: The antihypertensive effect can be determined in desoxycorticosterone acetate (DOCA)-salt hypertensive rats.
DOCA-salt hypertensive rats (280-380 g) are prepared by the standard method. Rats underwent a unilateral nephrectomy and one week later are implanted with silastic pellets containing 100 mg/kg of DOCA. The rats are maintained on 1% NaCl/0.2% KCl drinking water for three to five weeks until sustained hypertension is established. The antihypertensive activity is evaluated at this time.
Two days before an experiment, the rats are anesthetized with methoxyflurane and instrumented with catheters in the femoral artery to measure arterial blood pressure. Forty-eight hours later, baseline arterial pressure and heart rate are recorded during a 1 hour period. The test compound or vehicle is then administered and the same cardiovascular parameters are monitored for an additional 5 hours.

[3] = biological target: T1, porcine endothelin converting enzyme (Sus scrofa, UniProt A0A8W4FBH0); assay: in vitro inhibition of porcine endothelin-converting enzyme (ECE); assay type: biochemical; conditions: partially purified from porcine primary aortic endothelial cells
T1 construct: partially purified from porcine primary aortic endothelial cells by DE52 anion exchange column; endogenous in cells; host or cells: porcine primary aortic endothelial cells
T1 sequence (A0A8W4FBH0 1-751): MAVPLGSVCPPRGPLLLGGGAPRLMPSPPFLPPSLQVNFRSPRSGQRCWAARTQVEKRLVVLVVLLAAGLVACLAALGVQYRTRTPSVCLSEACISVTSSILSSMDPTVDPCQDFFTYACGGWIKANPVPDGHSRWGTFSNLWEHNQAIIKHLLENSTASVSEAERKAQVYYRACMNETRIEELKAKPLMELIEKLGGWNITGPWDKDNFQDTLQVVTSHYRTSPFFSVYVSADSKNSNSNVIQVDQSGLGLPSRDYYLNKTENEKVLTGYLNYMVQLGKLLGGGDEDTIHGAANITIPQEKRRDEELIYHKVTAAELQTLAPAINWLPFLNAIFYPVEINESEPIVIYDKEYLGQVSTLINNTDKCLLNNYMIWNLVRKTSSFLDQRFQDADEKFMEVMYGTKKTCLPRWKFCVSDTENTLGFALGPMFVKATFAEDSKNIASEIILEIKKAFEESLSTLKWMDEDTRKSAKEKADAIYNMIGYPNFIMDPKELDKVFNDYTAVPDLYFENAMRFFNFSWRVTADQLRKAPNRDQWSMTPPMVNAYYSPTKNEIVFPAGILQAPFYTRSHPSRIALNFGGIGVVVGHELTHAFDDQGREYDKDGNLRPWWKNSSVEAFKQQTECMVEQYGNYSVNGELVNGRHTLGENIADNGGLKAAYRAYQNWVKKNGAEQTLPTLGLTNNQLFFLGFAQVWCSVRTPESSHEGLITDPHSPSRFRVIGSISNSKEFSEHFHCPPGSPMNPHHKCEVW
Text: Endothelin converting enzyme (ECE) is partially purified from porcine primary aortic endothelial cells by DE52 anion exchange column chromatrography and its activity is quantified by radioimmunoassay as described in Anal. Biochem. 213, 434-436 (1993). The ECE inhibition can be determined as described in Biochem. Mol. Biol. Int. 31, (5), 861-867 (1993), by radioimmunoassay to measure ET-1 formed from big ET-1.

[4] = system: big ET-1 induced pressor response; assay: inhibition of big ET-1 induced pressor response in conscious spontaneously hypertensive rats (SHR); assay type: in vivo; conditions: continuous infusion of 5 mg/Kg/day; over 60 minutes; vs vehicle control
Experimental: ECE inhibition can also be determined in vivo by measuring the inhibition big ET-1 induced pressor response in conscious spontaneously hypertensive rats (SHR), e.g. as described in Biochem. Biophys. Res. Communic. 204, 407-412 (1994).
Male SHR (16-18 weeks of age) are administered either test compound or vehicle (1M NaHCO3) via an osmotic minipump implated subcutaneously. On day 5 femoral arterial and venous catheters are placed in anesthetized rats for the measurement of MAP (mean arterial pressure) and for test compound administration, respectively. After a 48 hour recovery period, MAP is recorded (day 7) through the arterial catheter connected to a pressure transducer. Blood pressure and heart rate are allowed to stabilize for 30 minutes before ganglion blockade is performed using chlorisondamine ([…] i.v.). Approximately 15 minutes later, a bolus dose of big ET-1 (0.25 nmol/kg i.v.) is administered to both vehicle- and test compound treated rats. The change in blood pressure in response to big ET-1 is then compared between the two groups of rats at 1, 5, 10, 15, 30 and 60 min after dosing using a two-way ANOVA.

[5] = system: spontaneous hypertensive rats; assay: mean arterial pressure of spontaneous hypertensive rats using telemetry; assay type: in vivo, rat; conditions: continuous infusion of 5 mg/Kg/day for 13 days, no exogenous big ET-1

IC50 [3] [µM] | SMILES | plasma ANF levels [1] | blood pressure [2] | reduction of big ET-1 induced pressor response [4] | mean arterial pressure [5]
 | O=P(CN[C@@H](Cc1ccc(-c2ccccc2)cc1)c1nnn[nH]1)(Oc1ccccc1)Oc1ccccc1 | significant increases in plasma ANF levels | significant reduction in blood pressure |  | 
~1.1 | O=P(O)(O)CN[C@@H](Cc1ccc(-c2ccccc2)cc1)c1nnn[nH]1 [(S)-[2-(Biphenyl-4-yl)-1-(1H-tetrazol-5-yl)-ethylamino]-methylphosphonic acid] |  |  | significant difference in reduction of big ET-1 induced pressor response | sustained reduction in the mean arterial pressure

Reference: patent US5550119A, “Phosphono substituted tetrazole derivatives as ECE inhibitors” (Ciba-Geigy Corporation, priority 1995, dated 1996)
